Entries after “also recorded” stand apart in the source; their conditions may differ. Counter-ions that a name gives are not always drawn.
Experiments:
MLO-Y4 osteocytes [1] = assay: Oscillatory fluid flow-induced mRNA expression (COX-2, OPN, AC6), flow vs no flow; format: cell-based; settings: for COX-2 mRNA response to flow (in words) / OPN mRNA response to flow (in words): fenoldopam 16 hours, flow 1 hour, relative to GAPDH
Adenylyl cyclase = Adenylyl cyclase activity: forskolin stimulated cAMP ELISA; format: cell-based
Experimental: Adenylyl cyclase activity was quantified by cAMP ELISA (Enzo). […] Cells were stimulated by 10 μM forskolin (Sigma) or DMSO vehicle control for 20 minutes prior to lysis with 0.1 M HCl. Cell lysate was analyzed according to manufacturer's protocol, and normalized to total protein quantified by BCA (Thermo Fisher). All samples and standards were run in duplicate.

MLO-Y4 osteocytes [2] = assay: mRNA expression (AC6, IFT88) by quantitative real-time PCR, no flow; format: cell-based; settings: for IFT88 mRNA expression in untransfected cells: fenoldopam
[3] = μCT analysis of non-loaded ulnae; format: in vivo, mice; settings: for μCT: normal bone properties / microarchitecture (in words): 7 days, non-loaded ulnar midshaft
Experimental: Non-loaded ulnae were used for μCT analysis. Samples were imaged with a Scanco ViaCT 80 at 10.5 μm isotropic resolution. Images were processed using a Gaussian filter and global threshold to segment bone volumes. Ulnar midshafts were imaged and used to assess cortical bone, while the proximal epiphysis was used to examine ulnar trabecular bone. Cortical bone analysis was performed to determine total area, cortical area, marrow area, bone volume fraction (BV/TV), cortical thickness, moment of inertia (Imax and Imin), and bone mineral density (BMD). Trabecular analyses included BV/TV, connectivity density, trabecular number, trabecular thickness, trabecular spacing, and BMD.

C3H10T1/2 MSCs = assay: Flow-induced paracrine signaling: conditioned media of treated osteocytes on MSCs (OSX mRNA); format: cell-based; settings: osteocytes treated with fenoldopam 10 μM 16 hours; MSCs cultured 48 hours in conditioned media
Experimental: Osteocytes were seeded at 2800 cells/cm2 for 72 hours before application of fluid flow. MC3T3 osteoblasts were cultured in MEMα supplemented with 10% FBS and 1% P/S. Osteoblasts were seeded at 2000 cells/cm2 72 hours before receiving conditioned media. C3H10T1/2 MSCs were cultured in DMEM low glucose (Life Technologies) supplemented with 10% FBS and 1% P/S, and seeded at 1100 cells/cm2 72 hours before culture with conditioned media 150. […] Osteocytes were cultured on rectangular flasks (8.2×9.2 cm; 12.5 ml of media) on a rocking platform which oscillated at a frequency of 0.33 Hz with an amplitude of 1.3 cm, supplying 0.08 Pa shear stress for 2, 6, 12, or 24 hours, FIG. 4.2. Shear stress generated by oscillatory fluid flow was calculated as previously performed 153. 12 hours of fluid flow was used in all experiments. Cells were also cultured in static conditions as a no flow control. Conditioned media was collected from osteocytes immediately upon completion of rocking, and used to culture osteoblasts or MSCs for 24 or 48 hours, respectively. […] Gene expression was analyzed by quantitative real-time PCR using primers and probes (Life Technologies) for analysis of osteopontin, OPN (Mm00436767_m1), osterix, OSX (Mm04209856_m1), and GAPDH (4351309). […]

MC3T3 osteoblasts = assay: Flow-induced paracrine signaling: conditioned media of treated osteocytes on osteoblasts (OPN mRNA); format: cell-based; settings: osteocytes treated with fenoldopam 10 μM 16 hours; 12 hrs flow; osteoblasts cultured 24 hours
C57Bl/6 mice = assay: Load-induced bone formation: compressive ulnar loading and dynamic histomorphometry; format: in vivo; settings: ulnar load final 3 days
Source text: All data are shown in reference to the non-loaded contralateral limb as control. […] On day 4-6 the mice were subjected to daily axial compressive ulnar loading. Mice were placed under isoflurane anesthesia and forelimbs were placed between two loading cups controlled by an electromagnetic loading system with feedback control (Bose, ELF 3220). An initial 0.1 N preload was applied, followed by 3 N of cyclic compression applied with a 2 Hz sine wave for 120 cycles, generating a strain gage verified average peak deformation of 1895 μstrain. On day 8, mice were subcutaneously injected with calcein (10 mg/kg) and alizarin red (70 mg/kg) on day 12. Mice were euthanized on day 18 and prepared for dynamic histomorphometric analysis.
Compressive ulnar loading was applied on days 5-7 to mechanically stimulate bone (3N at 2 Hz for 120 cycles) [9].
On the final three days of drug or control injection, animals were also subjected to compressive ulnar load at a peak load of 3 N using a 2 Hz sine wave for 120 cycles, as previously described (Temiyasathit, S. et al. PLoS One 7, (2012); Lee, K. L. et al. FASEB J. 28, 1157-1165 (2014)). Contralateral limbs served as a non-loaded control. 2 days following load, mice were treated with 10 mg/kg calcein (Sigma), and 4 days later 70 mg/kg alizarin (Sigma), with mice being sacrificed 6 days later.
Dynamic histomorphometry was performed as previously described, measuring the amount and separation of calcein and alizarin labels to quantify mineralizing surface (rMS/BS), mineral apposition rate (rMAR), and bone formation rate (rBFR/BS) relative to non-loaded controls (Temiyasathit, S. et al. PLoS One 7, (2012); Lee, K. L. et al. FASEB J. 28, 1157-1165 (2014)). Left and right ulnae were dissected and preserved in ethanol. Samples were then infiltrated with methyl methacrylate, and embedded in methyl methacrylate and benzoyl peroxide. Transverse sections of the ulnar midshaft were imaged on a laser scanning confocal microscope (Olympus Fluoview FV1000). Measurements of outer bone perimeter (OP), single label perimeter (SL), double label perimeter (DL), and double label area (DA) were made in ImageJ. The mineralizing surface relative to outer bone surface (MS/BS), mineral apposition rate (MAR), and bone formation rate (BFS/BS) were calculated as:
Relative measurements—rMS/BS, rMAR, rBFR/BS—were determined by subtracting non-loaded from loaded ulnae to display differences due to mechanical load.

[4] = Adverse effects of drug treatment: body, kidney and liver weight, H&E histology, bone ultrastructure, injection site; format: in vivo, mice; settings: fenoldopam 20 mg/kg; for visible bone ultrastructure: loaded ulnae
Source text: Mice were housed in the Columbia University Barrier Facility and fed ad libidum. All procedures performed were in accordance with Columbia University Institutional Animal Care and Use Committee guidelines.
Kidneys and liver were dissected from animals, weighed, fixed in 10% formalin, and stored in 70% ethanol before being paraffin embedded. 5 μm thick longitudinal sections were made, and samples were stained with hematoxylin and eosin to visualize tissue structure. Images were captured at 4× magnification. Kidney function was broadly examined by urine creatinine concentration. […] Hydrophobic sand (Lab Sand) was used for urine sample collection, and analysis was performed using a total urine creatinine kit (Cayman Chemical).

[5] = fenoldopam 100 mg/kg, rat model (Dalmas et al. 2008); cited from earlier work
[6] = 10 μM fenoldopam 16 h, flow 1 hr, fold change flow over no flow
[7] = fenoldopam on AC6 siRNA treated cells
[8] = fenoldopam treatment of osteocytes
[9] = Table 1, ulnar midshaft, Female
[10] = fenoldopam 20 mg/kg s.c. 7 consecutive days, relative to non-loaded limb, vs vehicle
[11] = fenoldopam 20 mg/kg s.c. 7 consecutive days, relative to non-loaded limb, vs vehicle, listed as Fenoldopam
[12] = fenoldopam 50 mg/kg (Fen-High) s.c. 7 consecutive days

## Oc1ccc(C2CNCCc3c2cc(O)c(O)c3Cl)cc1 (stereo not drawn) [fenoldopam, Fenoldopam mesylate]
MLO-Y4 osteocytes [1]; [6]
  elevated flow-induced COX-2 mRNA expression compared to unlengthened controls: 124%±27%
  elevated flow-induced OPN mRNA expression compared to unlengthened controls: 48%±8%
MLO-Y4 osteocytes [1]
  COX-2 mRNA response to flow (in words): significant increases
  OPN mRNA response to flow (in words): significant increases
MLO-Y4 osteocytes [1]; listed as Fenoldopam
  COX-2 mRNA response to flow (in words): increased
  OPN mRNA response to flow (in words): increased
MLO-Y4 osteocytes [1]; [7]
  AC6 mRNA expression in AC6 siRNA treated cells under flow: not recovered
  flow-induced OPN mRNA expression in AC6 siRNA treated cells: not recovered
MLO-Y4 osteocytes [1]; fenoldopam on IFT88 siRNA treated cells
  flow stimulated OPN expression in IFT88 siRNA treated cells (in words): able to recover
MLO-Y4 osteocytes [1]; fenoldopam on IFT88 siRNA treated cells, flow 1 h
  recovery of flow-induced OPN response compared to IFT88 siRNA and vehicle treated cells: 52%±1%
Adenylyl cyclase; 10 μM fenoldopam 16 hours, then 10 μM forskolin 20 minutes
  enhancement of forskolin stimulated cAMP response compared to vehicle control: 130%±25%
Adenylyl cyclase; fenoldopam 16 h, then forskolin 20 min
  cAMP response to forskolin stimulation (in words): significantly increases
MLO-Y4 osteocytes [2]
  IFT88 mRNA expression in untransfected cells: no significant effect
MLO-Y4 osteocytes [2]; [8]
  AC6 mRNA expression (in words): significantly increases
  increase in AC6 mRNA expression: 20%±8%
MLO-Y4 osteocytes [2]; listed as Fenoldopam
  IFT88 mRNA expression in untransfected cells: did not alter
[3]; [9]
  Cortical area: 0.310 ± 0.003 mm^2
  Cortical thickness: 0.173 ± 0.006 mm
  Imax: 0.029 ± 0.001 mm^4
  Imin: 0.005 ± 0.000 mm^4
  Porosity: 0.131 ± 0.006%
[3]; Table 1, ulnar midshaft, Female, fenoldopam 20 mg/kg 7 days
  Total area: 0.357 ± 0.005 mm^2
[3]; Table 1, ulnar midshaft, Male
  Cortical area: 0.320 ± 0.023 mm^2
  Cortical thickness: 0.169 ± 0.009 mm
  Imax: 0.033 ± 0.007 mm^4
  Imin: 0.004 ± 0.001 mm^4
  Porosity: 0.134 ± 0.003%
[3]; Table 1, ulnar midshaft, Male, fenoldopam 20 mg/kg 7 days
  Total area: 0.370 ± 0.027 mm^2
[3]; Table 5, cortical, Female
  Cortical area: 0.310 ± 0.003 mm^2
  Cortical thickness: 0.173 ± 0.006 mm
  Imax: 0.029 ± 0.001 mm^4
  Imin: 0.005 ± 0.000 mm^4
[3]; Table 5, cortical, Male
  Cortical area: 0.320 ± 0.009 mm^2
  Cortical thickness: 0.169 ± 0.004 mm
  Imax: 0.033 ± 0.003 mm^4
  Imin: 0.004 ± 0.001 mm^4
  Marrow area: 0.049 ± 0.001 mm^2
[3]; Table 5, ulnar midshaft - cortical, non-loaded, Female, 20 mg/kg fenoldopam
  Total area: 0.357 ± 0.005 mm^2
[3]; Table 5, ulnar midshaft - cortical, non-loaded, Male, 20 mg/kg fenoldopam
  Total area: 0.370 ± 0.010 mm^2
[3]; fenoldopam 20 mg/kg
  μCT: normal bone properties / microarchitecture (in words): no change; also recorded: no difference
[3]; fenoldopam 20 mg/kg, listed as Fenoldopam
  μCT: normal bone properties / microarchitecture (in words): did not result in any change
[3]; fenoldopam 20 mg/kg, preliminary study, data not shown
  μCT: normal cortical bone properties including thickness, area, and moment of inertia: no change
C3H10T1/2 MSCs
  MSC osteogenic differentiation, as measured by osterix (OSX) expression: significantly enhanced
MC3T3 osteoblasts
  osteoblast osteogenic gene (osteopontin, OPN) expression after conditioned media from flow-stimulated osteocytes: increased; also recorded: significantly enhanced
C57Bl/6 mice; [10]
  bone formation rate (rBFR/BS): significantly increased; also recorded: significant increases; also recorded: significantly enhanced
  mineral apposition rate (rMAR): significantly increased; also recorded: significant increases
  mineralizing surface (rMS/BS): remained unchanged; also recorded: neither fenoldopam concentration elicited a significant increase
C57Bl/6 mice; [11]
  bone formation rate (rBFR/BS): enhances
  mineralizing surface (rMS/BS): no effect
C57Bl/6 mice; [12]
  bone formation rate (rBFR/BS): no statistically significant difference; also recorded: no effect; also recorded: elicited no bone formation response
  mineral apposition rate (rMAR): no statistically significant difference; also recorded: no effect
  mineralizing surface (rMS/BS): no statistically significant difference; also recorded: no effect
[4]; 7 days, vs vehicle control
  visible bone ultrastructure: no difference
  kidney morphology assessed by H&E stain: remained unchanged
  kidney weight: remained unchanged
  mouse weight: remained unchanged
[4]; 7 days, vs vehicle control, listed as Fenoldopam
  visible bone ultrastructure: no qualitative change
[4]; preliminary study
  kidney histology: no abnormalities or cysts
  kidney weight to body mass measurements: no different than vehicle controls
[5]
  vasotoxicity: vasotoxic
